Data on 4 compounds can be found in ChEMBL document CHEMBL1140028, “Heterocyclic alpha-helix mimetics for targeting protein-protein interactions” (Bioorg Med Chem Lett, 2007).

Calls of active or inactive are those of the source. The rule behind the calls is not given here.

The experiment concerns Bcl-XL (Homo sapiens). Kind of experiment: Binding affinity to Bcl-XL by fluorescence polarization assay.

For the compound `CC(C)Cc1cc(-c2nc(C(C)C)co2)nnc1-c1nc(C(C)C)co1`, the outcome was Active.

Turning to `CCC(C)C1CN(C(=O)c2cc(Cc3ccccc3)c(-c3nc(CC(C)C)co3)nn2)CCN1C` (centres undefined), the result was Active.

Turning to `CC(C)c1coc(-c2cc(CC3CCCCC3)c(-c3nc(C(C)C)co3)nn2)n1`, the result was Active.

For `CC(C)Cc1cc(C(=O)N2CCC[C@@H](OCc3ccccc3)C2)nnc1-c1nc(C(C)C)co1`, the result was Active.
